Results from paper PMC4755756, “Catalysis-dependent selenium incorporation and migration in the nitrogenase active site iron-molybdenum cofactor” (eLife, 2015).

Experiments:
[1] = target: T1, nitrogenase MoFe-protein (Av1) (Azotobacter vinelandii, UniProt P07328); experiment: inhibition of acetylene reduction, Dixon plot (gas chromatography); format: biochemical
T1 construct: gene nifD; purified Av1, (αβ)2 tetramer, with Av2; with MoFe-protein β subunit (NifK); Fe-protein (Av2)

[2] = target: T1, nitrogenase MoFe-protein (Av1); experiment: inhibition of acetylene reduction, Dixon plot (gas chromatography); Se incorporation seen by crystallography; format: biochemical
Text: inhibition of acetylene reduction, Dixon plot (gas chromatography); Se incorporation seen by crystallography on nitrogenase MoFe-protein (Av1) | SeCN^- is a potent, yet reversible inhibitor of acetylene reduction

Row | SMILES | Ki [1] [mM] | Ki [2] [mM]
1 | N#CS [thiocyanate] | 12.7 ± 1.2 | –
2 | N#C[SeH] [selenocyanate] | – | 0.41 ± 0.03
